Laboratory results: patent US4137322A, “ML-236B carboxylic acid derivatives and their use as antihyperlipemic agents” (Sankyo Company Limited, priority 1976, dated 1979)
Read-outs that look alike come from different tables or passages of the source.

Key:
Acute toxicity in rat = conditions: in vivo, po
Experimental: (§1) Acute toxicity of ML-236B carboxylic acid derivatives (I) was determined in oral and intraperitoneal administration (both as an aqueous suspension).

cholesterol biosynthesis = assay: Inhibition of cholesterol biosynthesis; type: biochemical
[1] = system: total serum cholesterol in beagle dogs; assay: Lowering activity of blood cholesterol in beagle dogs; type: in vivo, beagle dog; conditions: for inhibition in vivo at 25 mg/kg/day / inhibition in vivo at 100 mg/kg/day: Canis lupus familiaris, po, 120 h, read-out: Lowering rate of total serum cholesterol
Text: The test was to orally administer an encapsulated test sample twice per day, in the morning (9 o'clock) and evening (16 o'clock), for continuous 5 days, collect a blood sample in the morning after 5 days and determine a total cholesterol level in serum by a conventional method.

[2] = system: serum cholesterol in rats; assay: Lowering activity of blood cholesterol in rats; type: in vivo, rat; conditions: for inhibition in vivo at 5 mg/kg / inhibition in vivo at 20 mg/kg: Rattus norvegicus, po, 18 h, read-out: Lowering rate of serum cholesterol
Experimental: A lowering activity of blood cholesterol in rats was assayed on rats. The test was to orally administer a test sample suspended in water, collect a blood sample after 18 hours and determine a cholesterol level in serum by a conventional method.

Acute toxicity in mouse = conditions: in vivo, ip
Experimental: as §1

[3] = biological target: T1, 3-hydroxy-3-methylglutaryl-CoA reductase (Rattus norvegicus, UniProt P51639); assay: Inhibition of 3-hydroxy-3-methylglutaryl-CoA reductase; type: biochemical
T1 construct: Employed as an enzyme microsome of rat liver; from tissue; host or cells: rat liver microsomes
T1 sequence (P51639 1-887): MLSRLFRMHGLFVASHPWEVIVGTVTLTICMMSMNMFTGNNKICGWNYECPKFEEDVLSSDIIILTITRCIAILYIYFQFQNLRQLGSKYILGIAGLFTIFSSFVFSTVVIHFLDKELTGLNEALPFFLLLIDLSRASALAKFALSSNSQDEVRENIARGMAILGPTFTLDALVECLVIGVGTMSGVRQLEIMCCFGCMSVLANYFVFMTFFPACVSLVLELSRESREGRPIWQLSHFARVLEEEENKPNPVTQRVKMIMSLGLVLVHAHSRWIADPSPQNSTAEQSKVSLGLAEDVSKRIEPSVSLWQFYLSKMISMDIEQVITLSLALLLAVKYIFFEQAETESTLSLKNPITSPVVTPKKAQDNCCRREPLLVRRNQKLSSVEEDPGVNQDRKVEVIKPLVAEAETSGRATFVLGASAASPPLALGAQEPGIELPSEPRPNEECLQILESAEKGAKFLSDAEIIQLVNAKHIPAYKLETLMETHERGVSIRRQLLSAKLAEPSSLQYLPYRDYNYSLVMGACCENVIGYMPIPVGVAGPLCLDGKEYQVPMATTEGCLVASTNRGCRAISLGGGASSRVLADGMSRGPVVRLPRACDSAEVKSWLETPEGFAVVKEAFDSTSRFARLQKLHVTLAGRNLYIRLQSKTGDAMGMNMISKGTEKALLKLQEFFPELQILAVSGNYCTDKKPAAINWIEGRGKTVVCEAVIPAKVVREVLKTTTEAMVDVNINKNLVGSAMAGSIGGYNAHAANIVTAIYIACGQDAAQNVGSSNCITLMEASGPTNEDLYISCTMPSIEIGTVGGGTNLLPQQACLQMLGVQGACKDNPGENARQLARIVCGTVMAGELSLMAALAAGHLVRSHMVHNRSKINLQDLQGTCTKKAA
Text: Inhibition activity of cholesterol biosynthesis [determined according to the method disclosed in J. Biol. Chem., 234, 2835 (1959)] and inhibition activity on 3-hydroxy-3-methylglutaryl-CoA reductase [determined according to the method disclosed in Anal. Biochem., 31, 383 (1969)] of these compounds are summarized in Table 1.
*Employed as an enzyme microsome of rat liver.

Rat = assay: Acute toxicity in rat; conditions: aqueous suspension
Experimental: as §1

Mouse = assay: Acute toxicity in mouse; conditions: aqueous suspension
Experimental: as §1

[4] = beagle dogs, 25 mg/kg/day, oral twice per day, 5 days
[5] = beagle dogs, 100 mg/kg/day, oral twice per day, 5 days
[6] = rats, 5 mg/kg, oral, after 18 hours
[7] = rats, 20 mg/kg, oral, after 18 hours
[8] = LD50, mouse, aqueous suspension
[9] = enzyme: microsome of rat liver, read-out: Concentration to inhibit 50% of 3-hydroxy-3-methylglutaryl-CoA reductase (converted)
[10] = rats, 5 mg/kg, oral, after 18 hours, 5 mg/kg
[11] = rats, 20 mg/kg, oral, after 18 hours, 20 mg/kg

Row | Compound | LD50 (Acute toxicity in rat; LD50, rat, aqueous suspension) [mg/kg] | Concentration to inhibit 50% of cholesterol biosynthesis (cholesterol biosynthesis) [µg/mL] | inhibition in vivo at 25 mg/kg/day [1, 4] [%] | inhibition in vivo at 100 mg/kg/day [1, 5] [%] | inhibition in vivo at 5 mg/kg [2, 6] [%] | inhibition in vivo at 20 mg/kg [2, 7] [%] | LD50 (Acute toxicity in mouse; [8]) [mg/kg] | IC50 [3, 9] [nM] | also measured
1 | CCC(C)C(=O)OC1CCC=C2C=CC(C)C(CCC(O)CC(O)CC(=O)OCC(=O)c3ccc(Br)cc3)C21 (centres unmarked) [4-bromophenacyl, 4-Bromophenacyl ML-236B carboxylate] | > 2000 | 0.01 | 21 | 30 | 17 | 24 | > 500 | 330 | 
2 | CCC(C)C(=O)OC1CCC=C2C=CC(C)C(CCC(O)CC(O)CC(=O)OCc3ccc(Cl)cc3)C21 (centres unmarked) [4-chlorobenzyl, 4-Chlorobenzyl ML-236B carboxylate] | > 2000 | 0.01 | 20 | 36 | 15 | 21 | > 500 | 375 | 
3 | CCC(C)C(=O)OC1CCC=C2C=CC(C)C(CCC(O)CC(O)CC(=O)OCc3ccc(OC)cc3)C21 (centres unmarked) [4-methoxybenzyl, 4-Methoxybenzyl ML-236B carboxylate] |  | 0.01 |  |  |  |  |  |  | LD50 (Acute toxicity in rat): > 2000 mg/kg; inhibition in vivo at 25 mg/kg/day [1]: 26%; inhibition in vivo at 100 mg/kg/day [1]: 36%; inhibition in vivo at 5 mg/kg [2]: 17%; inhibition in vivo at 20 mg/kg [2]: 20%; LD50 (Acute toxicity in mouse): > 500 mg/kg; IC50 [3]: 378 nM
4 | CCC(C)C(=O)OC1CCC=C2C=CC(C)C(CCC(O)CC(O)CC(=O)OCC(=O)c3ccc(OC)cc3)C21 (centres unmarked) [4-methoxyphenacyl, 4-Methoxyphenacyl ML-236B carboxylate] | > 2000 | 0.01 | 26 | 39 | 14 | 23 | > 500 | 359 | 
5 | CCC(C)C(=O)OC1CCC=C2C=CC(C)C(CCC(O)CC(O)CC(=O)OCc3ccc(C)cc3)C21 (centres unmarked) [4-methylbenzyl, 4-Methylbenzyl ML-236B carboxylate] | > 2000 | 0.01 | 30 | 41 | 13 | 26 | > 500 | 390 | 
6 | CCC(C)C(=O)OC1CCC=C2C=CC(C)C(CCC(O)CC(O)CC(=O)OCC(=O)c3ccc(C)cc3)C21 (centres unmarked) [4-methylphenacyl, 4-Methylphenacyl ML-236B carboxylate] | > 2000 | 0.01 | 20 | 33 | 14 | 19 | > 500 | 370 | 
7 | CCC(C)C(=O)OC1CCC=C2C=CC(C)C(CCC(O)CC(O)CC(=O)O)C21 (centres unmarked) [Al, Aluminum ML-236B carboxylate] |  | 0.006 |  |  |  |  |  |  | LD50 (Rat; i.p.): > 500 mg/kg; LD50 (Rat; p.o., listed as Al salt): > 2,000 mg/kg; Lowering rate of total serum cholesterol [1, 4]: 26%; Lowering rate of total serum cholesterol [1, 5]: 41%; Lowering rate of serum cholesterol [2, 10]: 18.3%; Lowering rate of serum cholesterol [2, 11]: 22.1%; LD50 (Mouse; i.p.): > 500 mg/kg; LD50 (Mouse; p.o., listed as Al salt): > 2,000 mg/kg
8 | CCC(C)C(=O)OC1CCC=C2C=CC(C)C(CCC(O)CC(O)CC(=O)O)C21 (centres unmarked) [Ca, Calcium ML-236B carboxylate] |  | 0.006 |  |  |  |  |  |  | LD50 (Rat; i.p.): > 500 mg/kg; LD50 (Rat; p.o., listed as Ca salt): > 2,000 mg/kg; Lowering rate of total serum cholesterol [1, 4]: 28%; Lowering rate of total serum cholesterol [1, 5]: 44%; Lowering rate of serum cholesterol [2, 10]: 16.5%; Lowering rate of serum cholesterol [2, 11]: 20.9%; LD50 (Mouse; i.p.): > 500 mg/kg; LD50 (Mouse; p.o., listed as Ca salt): > 2,000 mg/kg
9 | CCC(C)C(=O)OC1CCC=C2C=CC(C)C(CCC3CC(O)CC(=O)O3)C21 (centres unmarked) [ML-236B] |  | 0.01 | < 5 | 19 | 11.2 | 17.1 |  | 12300 | 
10 | CCC(C)C(=O)OC1CCC=C2C=CC(C)C(CCC(O)CC(O)CC(=O)OCc3ccccc3)C21 (centres unmarked) [benzyl, Benzyl ML-236B carboxylate] | > 2000 | 0.01 | 24 | 38 | 14 | 24 | > 500 | 401 | 
11 | CCOC(=O)CC(O)CC(O)CCC1C(C)C=CC2=CCCC(OC(=O)C(C)CC)C21 (centres unmarked) [ethyl, Ethyl ML-236B carboxylate] |  | 0.01 |  |  |  |  |  |  | LD50 (Acute toxicity in rat): > 2000 mg/kg; inhibition in vivo at 25 mg/kg/day [1]: 13%; inhibition in vivo at 100 mg/kg/day [1]: 19%; inhibition in vivo at 5 mg/kg [2]: 19%; inhibition in vivo at 20 mg/kg [2]: 25%; LD50 (Acute toxicity in mouse): > 500 mg/kg; IC50 [3]: 366 nM
12 | CCC(C)C(=O)OC1CCC=C2C=CC(C)C(CCC(O)CC(O)CC(=O)OC(C)C)C21 (centres unmarked) [isopropyl, Isopropyl ML-236B carboxylate] | > 2000 | 0.04 | 19 | 30 | 16 | 25 | > 500 | 355 | 
13 | CCC(C)C(=O)OC1CCC=C2C=CC(C)C(CCC(O)CC(O)CC(=O)OC)C21 (centres unmarked) [methyl, Methyl ML-236B carboxylate] |  | 0.01 |  |  |  |  |  |  | LD50 (Acute toxicity in rat): > 2000 mg/kg; inhibition in vivo at 25 mg/kg/day [1]: 12%; inhibition in vivo at 100 mg/kg/day [1]: 26%; inhibition in vivo at 5 mg/kg [2]: 18%; inhibition in vivo at 20 mg/kg [2]: 23%; LD50 (Acute toxicity in mouse): > 500 mg/kg; IC50 [3]: 355 nM
14 | CCCCOC(=O)CC(O)CC(O)CCC1C(C)C=CC2=CCCC(OC(=O)C(C)CC)C21 (centres unmarked) [n-butyl, n-Butyl ML-236B carboxylate] | > 2000 | 0.02 | 32 | 46 | 20 | 26 | > 500 | 344 | 
15 | CCCCCCOC(=O)CC(O)CC(O)CCC1C(C)C=CC2=CCCC(OC(=O)C(C)CC)C21 (centres unmarked) [n-hexyl, Hexyl ML-236B carboxylate] | > 2000 | 0.02 | 17 | 29 | 14 | 23 | > 500 | 365 | 
16 | CCC(C)C(=O)OC1CCC=C2C=CC(C)C(CCC(O)CC(O)CC(=O)OCC(=O)c3ccccc3)C21 (centres unmarked) [phenacyl, Phenacyl ML-236B carboxylate] | > 2000 | 0.01 | 32 | 42 | 14 | 21 | > 500 | 380 | 
